Results as given in ChEMBL document CHEMBL5352484, “Discovery of a potent and long-acting Xenopus GLP-1-based GLP-1/glucagon/Y2 receptor triple agonist” (Eur J Med Chem, 2023).
Active and inactive are the calls of the source. The rule behind the calls is not given here.

Assays:
[1] = target: Glucagon-like peptide 1 receptor (Homo sapiens, UniProt P43220); assay: Agonist activity at GLP-1R (unknown origin) expressed in HEK293 cells assessed as cAMP accumulation incubated for 30 mins by HTRF method; assay type: functional, cell-based
Chain of Glucagon-like peptide 1 receptor (P43220 whole entry): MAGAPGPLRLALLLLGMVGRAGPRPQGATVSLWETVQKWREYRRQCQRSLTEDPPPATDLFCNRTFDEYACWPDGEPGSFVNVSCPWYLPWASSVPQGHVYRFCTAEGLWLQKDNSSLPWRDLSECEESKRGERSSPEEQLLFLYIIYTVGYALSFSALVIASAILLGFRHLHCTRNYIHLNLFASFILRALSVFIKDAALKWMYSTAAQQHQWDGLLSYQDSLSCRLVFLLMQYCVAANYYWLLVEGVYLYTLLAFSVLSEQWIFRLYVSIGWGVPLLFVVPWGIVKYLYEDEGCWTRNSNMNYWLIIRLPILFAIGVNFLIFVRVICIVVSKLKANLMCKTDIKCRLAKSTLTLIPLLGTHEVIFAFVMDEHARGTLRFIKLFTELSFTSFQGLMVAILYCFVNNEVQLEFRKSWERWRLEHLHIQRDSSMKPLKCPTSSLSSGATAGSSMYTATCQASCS

[2] = target: Glucagon receptor (Homo sapiens, UniProt P47871); assay: Agonist activity at GCGR (unknown origin) expressed in HEK293 cells assessed as cAMP accumulation incubated for 30 mins by HTRF method; assay type: functional, cell-based
Chain of Glucagon receptor (P47871 whole entry): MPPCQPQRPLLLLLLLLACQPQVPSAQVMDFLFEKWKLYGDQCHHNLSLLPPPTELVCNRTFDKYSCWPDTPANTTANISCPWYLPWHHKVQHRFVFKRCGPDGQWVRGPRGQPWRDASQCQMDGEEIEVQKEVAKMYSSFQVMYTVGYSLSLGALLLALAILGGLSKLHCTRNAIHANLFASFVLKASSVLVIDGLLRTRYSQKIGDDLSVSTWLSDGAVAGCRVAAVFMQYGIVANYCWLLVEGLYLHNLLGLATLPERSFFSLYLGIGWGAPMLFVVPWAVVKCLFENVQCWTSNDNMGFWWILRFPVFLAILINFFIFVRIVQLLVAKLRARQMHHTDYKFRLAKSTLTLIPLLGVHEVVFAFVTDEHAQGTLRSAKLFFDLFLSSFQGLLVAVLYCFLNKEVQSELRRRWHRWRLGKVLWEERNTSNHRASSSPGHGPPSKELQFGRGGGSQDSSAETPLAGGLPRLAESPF

[3] = test system: Mus musculus; assay: Hypoglycemic activity in ICR mouse assessed as reduction in glucose excursion at 30 nmol/kg, ip measured upto 120 mins; assay type: functional, organism-based
[4] = test system: Mus musculus; assay: Anti-obesity activity in C57BL/6J mouse model of high-fat diet induced obesity assessed as decrease in body weight at 30 nmol/kg, sc administered twice daily for 7 days; assay type: functional; parameters: scale not given: the % may be the effect or the level left; details: time 7 day
[5] = test system: Mus musculus; assay: Antiobesity activity in ICR mouse assessed as reduction in food intake at […], sc measured upto 24 hrs; assay type: functional; parameters: scale not given: the % may be the effect or the level left
[6] = test system: Mus musculus; assay: Hypoglycemic activity in ICR mouse assessed as decrease in blood glucose level at 30 nmol/kg, ip pretreated for 30 mins followed by glucose addition and measured upto 120 mins in presence of 60 nmol/kg Lys7(C16-gammaGlu)PYY3-36 by OGTT; assay type: functional, organism-based; details: time <= 150.0 min
[7] = test system: Mus musculus; assay: Anti-obesity activity in C57BL/6J mouse model of high-fat diet induced obesity assessed as decrease in food intake at 30 nmol/kg, sc administered twice daily for 7 days in presence of 60 nmol/kg Lys7(C16-gammaGlu)PYY3-36; assay type: functional, organism-based; details: time 7.0 day
[8] = test system: Mus musculus; assay: Reduction in serum AST level in C57BL/6J mouse at 30 nmol/kg, sc administered for 21 days; assay type: functional, organism-based; details: time 21.0 day
[9] = test system: Mus musculus; assay: Antiobesity activity in ICR mouse assessed as reduction in food intake at […], sc measured upto 24 hrs in presence of Lys7(C16-gammaGlu)PYY3-36; assay type: functional; parameters: scale not given: the % may be the effect or the level left
[10] = test system: Mus musculus; assay: Anti-diabetic activity in C57BL/6J mouse model of high-fat diet induced obesity assessed as improved in glucose tolerance at 30 nmol/kg, sc administered twice daily for 7 days in presence of 60 nmol/kg Lys7(C16-gammaGlu)PYY3-36; assay type: functional, organism-based; details: time 7.0 day
[11] = test system: Mus musculus; assay: Hypoglycemic activity in ICR mouse at 30 nmol/kg, ip pretreated with JNJ-31020028 for 30 mins prior to compound addition for 30 mins followed by glucose addition and measured upto 120 mins by OGTT; assay type: functional, organism-based; details: time <= 150.0 min
[12] = test system: Mus musculus; assay: Antiobesity activity in ICR mouse assessed as reduction in body weight at 30 nmol/kg, sc administered twice daily; assay type: functional; parameters: scale not given: the % may be the effect or the level left
[13] = test system: Mus musculus; assay: Anti-obesity activity in C57BL/6J mouse model of high-fat diet induced obesity assessed as decrease in body weight at 30 nmol/kg, sc administered twice daily for 7 days in presence of 60 nmol/kg Lys7(C16-gammaGlu)PYY3-36; assay type: functional; parameters: scale not given: the % may be the effect or the level left; details: time 7 day
[14] = test system: Mus musculus; assay: Anorexigenic effect in ICR mouse assessed as inhibition of food intake at 30 nmol/kg, ip pretreated with Jant-4 for 30 mins followed by compound addition for 30 mins; assay type: functional, organism-based
[15] = test system: Mus musculus; assay: Hypoglycemic activity in ICR mouse assessed as decrease in blood glucose level at 30 nmol/kg, ip pretreated for 30 mins followed by glucose addition and measured upto 120 mins by OGTT; assay type: functional, organism-based; details: time <= 150.0 min
[16] = test system: Mus musculus; assay: Reduction in serum ALT level in C57BL/6J mouse at 30 nmol/kg, sc administered for 21 days; assay type: functional, organism-based; details: time 21.0 day
[17] = test system: Mus musculus; assay: Reduction in liver TG level in C57BL/6J mouse at 30 nmol/kg, sc administered for 21 days; assay type: functional, organism-based; details: time 21.0 day
[18] = test system: Mus musculus; assay: Antiobesity activity in C57BL/6J mouse assessed as reduction in body weight at 10 nmol/kg, sc after 21 days; assay type: functional; parameters: scale not given: the % may be the effect or the level left; details: time 21 day
[19] = test system: Mus musculus; assay: Reduction in saccharin consumption in ip dosed ICR mouse assessed as reduction in saccharin preference ratio pretreated for 40 mins with saccharin followed by compound addition; assay type: functional, organism-based
[20] = test system: Mus musculus; assay: Hypoglycemic activity in ICR mouse at 30 nmol/kg, ip pretreated with Jant-4 for 30 mins prior to compound addition for 30 mins followed by glucose addition and measured upto 120 mins by OGTT; assay type: functional, organism-based; details: time <= 150.0 min
[21] = test system: Mus musculus; assay: Reduction in liver TC level in C57BL/6J mouse at 30 nmol/kg, sc administered for 21 days; assay type: functional, organism-based; details: time 21.0 day

## CC[C@H](C)[C@H](NC(=O)[C@H](Cc1ccccc1)NC(=O)[C@H](CC(=O)O)NC(=O)[C@H](CCC(N)=O)NC(=O)[C@H](C)NC(=O)[C@H](CCCNC(=N)N)NC(=O)[C@H](CCCNC(=N)N)NC(=O)[C@H](CO)NC(=O)[C@H](CC(=O)O)NC(=O)[C@H](CCCCN)NC(=O)[C@H](CCC(N)=O)NC(=O)[C@H](CCCCN)NC(=O)[C@H](CO)NC(=O)[C@H](CC(C)C)NC(=O)[C@H](CC(=O)O)NC(=O)[C@H](CO)NC(=O)[C@@H](NC(=O)[C@H](Cc1ccccc1)NC(=O)[C@@H](NC(=O)CNC(=O)[C@H](CCC(N)=O)NC(=O)[C@@H](CO)NC(=O)[C@@H](N)Cc1c[nH]cn1)[C@@H](C)O)[C@@H](C)O)C(=O)N[C@@H](CCC(=O)O)C(=O)N[C@@H](Cc1c[nH]c2ccccc12)C(=O)N[C@@H](CC(C)C)C(=O)N[C@@H](CCCCN)C(=O)N[C@@H](CC(N)=O)C(=O)NCC(=O)NCC(=O)N1CCC[C@H]1C(=O)N[C@@H](CO)C(=O)N[C@@H](CO)C(=O)NCC(=O)N[C@@H](C)C(=O)N1CCC[C@H]1C(=O)N1CCC[C@H]1C(=O)N1CCC[C@H]1C(=O)N[C@@H](CO)C(=O)N[C@@H](CS)C(N)=O
[1]
  EC50: 0.087 nM
[2]
  EC50: 0.42 nM

## CCCCCCCCCCCCCCCC(=O)N[C@@H](CCC(=O)NCCCC[C@H](NC(=O)[C@H](Cc1ccc(O)cc1)NC(=O)[C@H](CCCCN)NC(=O)[C@H](CO)NC(=O)[C@@H](NC(=O)[C@H](CC(=O)O)NC(=O)[C@H](CC(N)=O)NC(=O)[C@@H](NC(=O)[C@H](Cc1ccc(O)cc1)NC(=O)[C@@H](NC(=O)CNC(=O)[C@H](CCC(N)=O)NC(=O)[C@@H](CO)NC(=O)[C@@H](N)Cc1c[nH]cn1)[C@@H](C)O)[C@@H](C)O)C(C)C)C(=O)N[C@@H](CC(=O)O)C(=O)N[C@@H](CO)C(=O)N[C@@H](CCCNC(=N)N)C(=O)N[C@@H](CCCNC(=N)N)C(=O)N[C@@H](C)C(=O)N[C@@H](CCC(N)=O)C(=O)N[C@@H](CC(=O)O)C(=O)N[C@@H](Cc1ccccc1)C(=O)N[C@H](C(=O)N[C@@H](CCC(=O)O)C(=O)N[C@@H](Cc1c[nH]c2ccccc12)C(=O)N[C@@H](CC(C)C)C(=O)N[C@@H](CCCCN)C(=O)N[C@@H](CC(N)=O)C(=O)NCC(=O)NCC(=O)N1CCC[C@H]1C(=O)N[C@@H](CO)C(=O)N[C@@H](CO)C(=O)NCC(=O)N[C@@H](C)C(=O)N1CCC[C@H]1C(=O)N1CCC[C@H]1C(=O)N1CCC[C@H]1C(=O)N[C@@H](CO)C(N)=O)[C@@H](C)CC)C(=O)O
[3]
  Activity: Active
[4]
  Activity: 16.6%
[5]
  Activity: 35%
[6]
  Activity: Active
[7]
  Activity: Active
[8]
  Activity: Active
[9]
  Activity: 66%
[10]
  Activity: Active
[11]
  Activity: inactive
[12]
  Activity: 15.6%
[13]
  Activity: 28.5%
[14]
  Activity: inactive
[15]
  Activity: Active
[16]
  Activity: Active
[17]
  Activity: Active
[18]
  Activity: 27%
[19]
  Activity: Dose-Dependent Effect
[20]
  Activity: inactive
[21]
  Activity: Active

## CC[C@H](C)[C@H](NC(=O)[C@H](Cc1ccccc1)NC(=O)[C@H](CC(=O)O)NC(=O)[C@H](CCC(N)=O)NC(=O)[C@H](C)NC(=O)[C@H](CCCNC(=N)N)NC(=O)[C@H](CCCNC(=N)N)NC(=O)[C@H](CO)NC(=O)[C@H](CC(=O)O)NC(=O)[C@H](CCCCN)NC(=O)[C@H](Cc1ccc(O)cc1)NC(=O)[C@H](CCCCN)NC(=O)[C@H](CO)NC(=O)[C@@H](NC(=O)[C@H](CC(=O)O)NC(=O)[C@H](CC(N)=O)NC(=O)[C@@H](NC(=O)[C@H](Cc1ccc(O)cc1)NC(=O)[C@@H](NC(=O)CNC(=O)[C@H](CCC(N)=O)NC(=O)[C@@H](CO)NC(=O)[C@@H](N)Cc1c[nH]cn1)[C@@H](C)O)[C@@H](C)O)C(C)C)C(=O)N[C@@H](CCC(=O)O)C(=O)N[C@@H](Cc1c[nH]c2ccccc12)C(=O)N[C@@H](CC(C)C)C(=O)N[C@@H](CCCCN)C(=O)N[C@@H](CC(N)=O)C(=O)NCC(=O)NCC(=O)N1CCC[C@H]1C(=O)N[C@@H](CO)C(=O)N[C@@H](CO)C(=O)NCC(=O)N[C@@H](C)C(=O)N1CCC[C@H]1C(=O)N1CCC[C@H]1C(=O)N1CCC[C@H]1C(=O)N[C@@H](CO)C(=O)N[C@@H](CS)C(N)=O
[1]
  EC50: 0.048 nM
[2]
  EC50: 0.19 nM
